We go through one compound from patent US20220152117A1, “METHODS OF PROMOTING CELLULAR MATURATION WITH AMPK ACTIVATORS” (UNIVERSITY OF WASHINGTON, priority 2019, published 2022).

SMILES strings stand for the structures. Where “and” joins values, the source holds several entries; their conditions need not be identical. Equal values may be shown once. Entries after “also recorded” stand apart in the source; their conditions may differ.

Holding throughout (type): cell-based, human
Assay [1] has as its system cardiomyocytes from ARVD/C hiPSCs. The assay can be described thus: TUNEL cell viability assay, cardiomyocytes from mutant PKP2 (ARVD/C) hiPSCs. As to conditions: two weeks treatment, TUNEL with α-actinin co-stain. How it is done:
The normal and mutant Plakophilin 2 (PKP2) cells were generated as described previously^37. Induced pluripotent cells were cultured with E8 medium in Matrigel® coated plates. Cardiomyocytes were obtained using a protocol based on Lian et al^38 that involves Wnt agonist CHIR 99021 in the early stages of differentiation followed by the Wnt antagonist IWP2 under monolayer condition. Before Day 7, cells were cultured in RPMI plus B27 without insulin while on Day 7 and afterwards, EB media (KO-DMEM with 2% FBS, 1 mM NEAAs, 1× GlutaMAX, 1 mM mercaptoethanol, and penicillin/streptomycin) was used. At 30 days of differentiation, beating EBs were treated with three factors (3F) (50 μg/ml insulin, 0.5 μM dexamethasone, and 0.25 mM IBMX) or five factors (5F) (3F plus PPAR-γ agonists 5 μM rosiglitazone and 200 μM indomethacin) media as described earlier or treated with 1 mM AICAR or AICAR plus rosiglitazone and indomethacin for two weeks. TUNEL staining with In Situ Cell Death Detection Kit TMR Red™ (Roche®) was used to assess cell viability after conducting different treatment. TUNEL staining was co-stained with anti-α-actinin antibody so that cardiomyocyte-specific apoptosis could be assessed.

Assay [2] concerns hiPSC-derived neurons. Put plainly: Quantitative RT-PCR gene expression in neurons.
Assay [3] deals with hiPSC-derived cardiomyocytes. The assay can be described thus: Contractile force assessment on micropost arrays. As to conditions: 1 mM AICAR for one week. How it is done: Contractile force was assessed using micropost arrays, following a procedure similar to previously reported studies on cardiomyocytes^2, 31, 32. The process used to fabricate the micropost arrays is described in detail elsewhere^33, 34. The microposts (6.45 μm in height, 2.3 μm in diameter, 6 μm center-to-center post spacing) were cast onto 25 mm diameter round #1 glass coverslips (VWR®). To enable cell attachment, the tips of these microposts were stamped with 50 μg/ml of mouse laminin (Life Technologies®) via microcontact printing, while the remaining surfaces of the micropost array were fluorescently stained with BSA conjugates with Alexa Fluor 594 and blocked with 0.2% Pluronic F-127 (in PBS)^34. Twenty days following differentiation, hiPSC-derived cardiomyocytes were seeded onto the micropost arrays in Attoflour chambers at a density of approximately 500,000 cells per chamber (˜100,000 cells/cm^2), in RPMI media supplemented with 5% fetal bovine serum. After 24 hours, the medium was replaced with serum-free RPMI-B27 plus insulin, which then was exchanged every other day. Beginning two days after seeding, half of the substrates were treated with 1 mM AICAR for one week. Prior to live imaging, the media was exchanged to Tyrode's buffer. Individual cardiomyocyte twitch forces were recorded under phase light using high-speed video microscopy in a live cell chamber at 37° C., as previously described^32. Only the contractile forces of single cardiomyocytes (no junctions with adjacent cells) with obvious beating activity were assessed. Post deflections were optically measured at approximately 100 frames/sec on a Nikon Ti-E™ upright microscope with a 60× water immersion objective. A custom-written MATLAB™ code was used to compare each time frame of the video to a reference fluorescent image taken at the base of the posts. Contractile forces were subsequently calculated by multiplying the deflection of each microposts by its bending stiffness: F=kδ (1) where F is the force at a single micropost, k is the post's bending stiffness (44.54 nN/μm for this study), and δ is the horizontal distance between the centroid of the post's tip and the centroid of the post's base. The total contractile force for each cardiomyocyte was calculated as the sum of the forces at each post beneath it. The passive tension, or baseline force, was defined as the contractile force when a cardiomyocyte was at rest, i.e. in between beats. The total twitch force was defined as the difference between the peak contractile force (achieved during a twitch) and the passive tension. Additionally, the average twitch force per post was analyzed in order to normalize the total twitch force by cell area. The average twitch force per post was calculated as the total twitch force divided by the number of posts underneath a cardiomyocyte. Passive tension, total twitch force, average twitch force per post, and beating frequency were used to compare the independent biological replicates (N=2, with 16-38 cells per independent biological replicate).

For assay [4], the system named is hPSC-CMs. The assay can be described thus: Mitochondrial oxidation of glucose, Seahorse XF96 maximum respiration capacity. The settings on record: AICAR treated vs control. As to the method:
The Seahorse XF96 extracellular flux Analyzer™ was used to assess mitochondria function with glucose as substrate. Cell preparation and treatment for this assay were the same as the palmitate assay. On the assay day, culture medium was changed to base media (unbuffered DMEM, Sigma D5030, supplemented with 2 mM glutamine, 25 mM glucose, 1 mM pyruvate) 1 hour before the assay and for the duration of the measurement. Selective inhibitors were injected during the measurements to achieve final concentrations of oligomycin at 2.5 μM, FCCP at 1 μM, rotenone at 2.5 μM, and antimycin A at 2.5 μM. The OCR values were further normalized to the number of cells present in each well, quantified by Hoechst staining. Maximal OCR was the OCR difference between uncoupler FCCP and ATPase inhibitor oligomycin. Due to variations in the absolute magnitude of OCR measurements in different experiments, the relative AICAR treated/untreated control levels were used to compare and summarize independent biological replicates (N=6).

Assay [5] deals with hiPSC-CMs. Put plainly: mtDNA to nDNA ratio by q-PCR in cardiomyocytes. The settings on record: relative to control hiPSC-CMs. An excerpt:
Mitochondrial DNA (mtDNA) to nuclear DNA (nDNA) ratio was estimated by q-PCR. For this purpose, a mtDNA fragment within the NADH dehydrogenase 1 (ND 1) gene and a region of the nuclear DNA-encoded lipoprotein lipase gene (LPL) were amplified. The primer sequences for ND 1 and LPL were adapted from^30. Total DNA was extracted using Qiagen DNeasy Kit™.

For assay [6], the system named is hiPSC-derived neurons. The assay can be described thus: mtDNA:nDNA ratio by quantitative PCR in neurons. The settings on record: two weeks of treatment with AICAR every third day.
Setting [7] is: normalized to HPRT then to control cells.

With `NC(=O)c1ncn([C@@H]2O[C@H](CO)[C@@H](O)[C@H]2O)c1N` [AICAR, 5-amino-4-imidazolecarboxamide riboside-1-β-D-ribofuranoside], the “apoptosis / cell death in cardiomyocytes from ARVD/C (mutant PKP2) hiPSCs” value in assay [1] is on record as “induced significant apoptosis; also recorded: induced significant cell death”. In addition, the “NeuN mRNA in neurons” value in assay [2] (compared to control neurons) is on record as “significant increase”. Further, in assay [2] (setting [7]), the “PPARα expression in neurons” value is given as “increased” and the “TFAM expression in neurons” value is “increased”. For the same compound, the “PDK4 expression in neurons” value in assay [2] (two weeks of treatment with AICAR every third day) is “increase”. Also, in assay [3] (control 0.87±0.07), the beating frequency is 0.49±0.04 Hz. For the same compound, the twitch force in assay [3] (control 9.7±0.7) was 14.1±1.6 nN/cell and ~14.1 nN/cell. This compound registered a passive tension in assay [3] (control 82.68±4.35) of 114.77±7.93 nN/cell. The “cellular size on microposts” value in assay [3] (control 213±5) turned out to be 260±11 μm^2. In addition, the “average twitch force per post” value in assay [3] (controls ~1.2) is listed as approximately 1.4 nN/post. Moreover, the “maximum mitochondrial respiration capacity” value in assay [4] is reported as “significantly increased”. In addition, the “increase in the ratio of mtDNA to nDNA” value in assay [5] is listed as 55%. In assay [6], the “mtDNA/nDNA ratio in neurons” value is “increase”.
